US11479587B2, “Cationic intrinsically disordered antimicrobial peptides” (priority 2016, dated 2022)
Where “and” joins values, the source holds several entries; their conditions need not be identical. Equal entries are not always repeated. Residues, ends and D or L forms follow the SMILES beside them.

Tests used:
[1] = test system: methicillin-resistant S. aureus strain (ATCC 43300); format: cell-based, Staphylococcus aureus; details: ATCC 43300, 18 h
Procedure: Furthermore, sensitivity of a methicillin-resistant S. aureus strain (ATCC 43300) was investigated for palmitoylated CIDAMPs in a microtiter plate screening model, with incubation in Mueller-Hinton medium at 37° C. for 18 h using resazurin as a marker for cell viability.
(§1) A sample of each culture was then diluted 40-fold in fresh broth and incubated at 37° C. for 1.5-3 h. […] All the plates were covered and incubated at 37° C. for 18 h.
(§2) Inhibition of bacterial growth was determined using resazurin as a marker for cell viability. Resazurin was added to each well, at 0.001% final concentration, and plates incubated at 37° C. for 2 h. Fluorescence intensity was measured, using F (top read), ex 560/10 nm, em 590/10 nm, using a Tecan M1000 Pro monochromator plate reader.

[2] = test system: multidrug-resistant K. pneumoniae ATCC 700603; format: cell-based, Klebsiella pneumoniae
Procedure: The Gram-negative opportunistic pathogen K. pneumoniae is responsible for a spectrum of community-acquired and nosocomial infections and typically infects patients with indwelling medical devices, on which this microorganism is able to grow as a biofilm.
as §1, §2

[3] = Cytotoxicity (resazurin) assay
Procedure, shortened: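 CC50 values were derived by fitting concentration-dependent percentage cytotoxicity to a dose–response function. The read-out was resazurin fluorescence (ex 560, em 590 nm; 100 μM, 3 h) after 20 h compound treatment of HEK293 cells at 37 °C in DMEM with 10% FBS.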

Hemolysis assay = format: cell-based; details: for HC50 at 1 h: human, washed erythrocytes from EDTA-blood, pH 7.4
Procedure, shortened: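 Washed EDTA-blood erythrocytes in 5% PBS, pH 7.4, were rotated 1 h at 37° C with peptides at 0, 3, 10, 30, 60 μm. Hemoglobin release read at 540 nm as % of 0.1% Triton X-100 hemolysis; CC50 from dose-response curve of triplicates.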

A. baumannii ATCC 19606 = format: cell-based, Acinetobacter baumannii; details: ATCC 19606, 2 h
Procedure: as §2

E. coli ATCC 25922 = format: cell-based, Escherichia coli; details: ATCC 25922, 2 h
Procedure: as §2

P. aeruginosa ATCC 27853 = format: cell-based, Pseudomonas aeruginosa; details: ATCC 27853, 2 h
Procedure: as §2

C. albicans ATCC 928 = details: for MIC, C. albicans ATCC 90028: ATCC 928

Structure (SMILES)	MIC, S. aureus ATCC 43300 [1] [µg/mL]	MIC, K. pneumoniae ATCC 700603 [2] [µg/mL]	CC50 [3]	HC50 (Hemolysis assay) [µg/mL]	HC50 at 1 h (Hemolysis assay) [µM]	MIC, A. baumannii ATCC 19606 (A. baumannii ATCC 19606) [µg/mL]	MIC, E. coli ATCC 25922 (E. coli ATCC 25922) [µg/mL]	MIC, P. aeruginosa ATCC 27853 (P. aeruginosa ATCC 27853) [µg/mL]	MIC, C. albicans ATCC 90028 (C. albicans ATCC 928) [µg/mL]	MIC (C. albicans ATCC 928; ATCC 928, 18 h, pH 7.4) [µg/mL]	MIC, C. neoformans ATCC 208821 (C. neoformans) [µg/mL]
CCCCCCCCCCCCCCCC(=O)NCC(=O)N[C@@H](CCCNC(=N)N)C(=O)N[C@@H](CCCNC(=N)N)C(=O)NCC(=O)NCC(=O)N[C@@H](CCCNC(=N)N)C(=O)NCC(=O)NCC(=O)N[C@@H](CCCNC(=N)N)C(=O)NCC(=O)N[C@@H](CCCNC(=N)N)C(=O)NCC(=O)N[C@@H](CCCNC(=N)N)C(=O)O [Pal-GR13] (HELM PEPTIDE1{[CCCCCCCCCCCCCCCC(=O)[*:2]].G.R.R.G.G.R.G.G.R.G.R.G.R}$$$$V2.0)	≥0.25	≥16	> 32 µg/mL and > 20.1 µM	100	62	≥2	≥4	≥8	≥4	1 to 32	≥0.25
CCCCCCCCCCCCCCCC(=O)NCC(=O)N[C@H](CCCNC(=N)N)C(=O)N[C@H](CCCNC(=N)N)C(=O)NCC(=O)NCC(=O)N[C@H](CCCNC(=N)N)C(=O)NCC(=O)NCC(=O)N[C@H](CCCNC(=N)N)C(=O)NCC(=O)N[C@H](CCCNC(=N)N)C(=O)NCC(=O)N[C@H](CCCNC(=N)N)C(=O)O [D-Pal-GR13] (HELM PEPTIDE1{[CCCCCCCCCCCCCCCC(=O)[*:2]].G.[dR].[dR].G.G.[dR].G.G.[dR].G.[dR].G.[dR]}$$$$V2.0)	≥2	≥32	> 32 µg/mL and > 20.1 µM	65	24.5	≥8	≥8	≥16	≥8		≥2
CCCCCCCCCCCCCCCC(=O)NCC(=O)N[C@@H](CCCNC(=N)N)C(=O)N[C@@H](CCCNC(=N)N)C(=O)NCC(=O)NCC(=O)N[C@@H](CCCNC(=N)N)C(=O)NCC(=O)NCC(=O)N[C@@H](CCCNC(=N)N)C(=O)NCC(=O)N[C@@H](CCCNC(=N)N)C(=O)O [Pal-GR11] (HELM PEPTIDE1{[CCCCCCCCCCCCCCCC(=O)[*:2]].G.R.R.G.G.R.G.G.R.G.R}$$$$V2.0)	≥4		> 32 µg/mL	90		≥8	≥8	≥16	≥4		≥4
